From patent publication US9371527B2, “Compositions and methods related to protein displacement therapy for myotonic distrophy” (University of Rochester, priority 2006, dated 2016)

Tested on: ClC-1 channel
Assay: Whole cell patch clamp of single FDB muscle fibers after morpholino injection/electroporation
Format: in vivo, HSA^LR mice
Conditions: for ClC-1 current density: 3-5 days after foot pad injection/electroporation; for ClC-1 deactivation kinetics: 3-5 days after injection, -100 mV
Experimental: Antisense morpholino targeting the 3′ splice junction of ClC-1 exon 7a was injected into foot pad muscle of HSA^LR mice under general anesthesia. Uptake into muscle fibers was enhanced by in vivo electroporation. The morpholino was tagged with fluorescein. 4 days later, individual FDB muscle fibers were isolated. […] As a control, the opposite footpad was injected with morpholino having the inverted sequence. […] The peak current density in HSA^LR mice (center panel) is much lower than in wild-type mice (left panel). However, after morpholino treatment in HSA^LR mice (right panel), the current density is restored to levels that are similar to wild-type mice. […] The antisense morpholino (closed squares) restores chloride current density to normal levels (open circles or triangles).
The dashed lines represent the zero current level. Capacitative currents recorded from each fiber are shown in the insert of each panel (scale bars: vertical, 3 nA; horizontal, 4 ms). Superimposed traces (solid lines) of normalized ClC-1 current deactivation at −100 mV in FDB fibers obtained from invert- (circles) and antisense-treated (squares) HSA^LR mice and antisense-treated WT mice (triangles) fit with a second order exponential (symbols) are shown in the insert to the left hand panel. Note that accelerated ClC-1 deactivation kinetics of FDB fibers obtained from HSA^LR mice is normalized only following treatment with antisense morpholino. […] Smooth curves through each dataset were generated using a modified Boltzmann equation (Lueck, J. D., et al. (2007) J Gen Physiol 129:79-94). […] Mean±s.e.m.; *P<0.05 invert-treated HSA^LR fibers compared to each of the other experimental conditions; t-test. […] Mean±s.d.; n=3 to 7 per group. Antisense morpholino was injected into one TA, invert morpholino was injected into the contralateral TA, and gastrocnemius muscle served as an untreated control. **P<0.0001 for antisense- vs invert-treated control; ANOVA.
Therefore, the effect of AON treatment on ClC-1 channel function was determined Hindlimb foot pads of […] WT and HSA^LR mice were injected/electroporated with carboxyfluorescein-labeled antisense or invert morpholino. Patch clamp analysis was performed three-to-five days after injection, at a time when fibers were still small enough to maintain an effective voltage clamp (Lueck, J. D., et al. (2007) J Gen Physiol 129:79-94). […] Rescue of ClC-1 activity was not due to a shift in channel activation since the voltage dependence of relative channel open probability (Po) was not different between antisense and invert-injected HSA^LR and WT fibers (FIG. 26C).
Delivery of antisense and invert morpholinos into FDB fibers was achieved by injection and electroporation of hindlimb footpads. Briefly, 12-14-day-old HSA^LR mice were anesthetized by intraperitoneal injection of 100 mg/kg ketamine, 10 mg/kg xylazine, and 3 mg/kg acepromazine. Hindlimb foot pads then were injected with bovine hyaluronidase followed 1 hour later with 20 μg (10 μl, 2 μg/μl in PBS) of antisense or invert carboxyfluorescein-labeled morpholino. Uptake of morpholinos was enhanced by electroporation (100 V/cm, 20 pulses at 1 Hz, and 20 ms per pulse) of the foot pad immediately after injection (DiFranco, M., et al. (2006) Protein Expr Purif 47:281-288). Three to five days after injection/electroporation, individual FDB muscle fibers were isolated as previously described (Lueck, J. D., et al. (2007) J Gen Physiol 129:79-94). Brightfield and fluorescence (488 nm excitation) images of single FDB fibers were acquired using a 40× (1.4 NA) objective and a TILL IMAGO QE cooled-CCD camera. […] ClC-1 currents were measured and analyzed in whole cell patch clamp experiments (Hamill, O. P., et al. (1981) Pflugers Arch 391:85-100) using an approach identical to that described in detail elsewhere (Lueck, J. D., et al. (2007) J Gen Physiol 129:79-94). ClC-1 current density (pA/pF) was calculated in order to compare data across fibers of different sizes. […]

antisense 1: morpholino 5′-CCAGGCACGGTCTGCAACAGAGAAG-3′ targeting the 3′ splice site of ClC-1 exon 7a (all phosphorodiamidate morpholino (PMO))
ClC-1 current density (listed as antisense morpholino): restores normal chloride current density
ClC-1 current density (listed as morpholino AON): rescued to WT values
ClC-1 deactivation kinetics (listed as antisense morpholino): normalized
ClC-1 deactivation kinetics (listed as morpholino AON): rescued to WT values
voltage dependence of relative channel open probability (Po) (HSA^LR and WT): not different

control morpholino: control morpholino 5′-GAAGAGACAACGTCTGGCACGGACC-3′, the 5′-3′ invert of the 3′ splice site blocker (all phosphorodiamidate morpholino (PMO)) [reference compound]
ClC-1 current density (listed as invert morpholino): not different from those of untreated HSA^LR fibers
ClC-1 current density (listed as inverted morpholino): markedly reduced
ClC-1 deactivation kinetics: not different from those of untreated HSA^LR fibers
